These results are taken from PubChem BioAssay (NCI).

Holding throughout (test): NCI anticancer screen, dose series, 48 h
Experiment [1] has as its system UO-31 renal.
The subject of experiment [2] is OVCAR-3 ovarian.
Experiment [3] relates to SW-620 colon.
Experiment [4] has as its system NCI-H23 lung.
Experiment [5] relates to CAKI-1 renal.
Experiment [6] relates to HCT-116 colon.
Experiment [7] has as its system SK-MEL-5 melanoma.
In experiment [8] the test system is SF-539 CNS.
The subject of experiment [9] is UACC-62 melanoma.
For experiment [10], the system named is TK-10 renal.

Several values for one entry are separate records, joined by “and”; a condition that tells them apart may be missing. Equal values may be shown once.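 Each compound was tested at five concentrations against cells in 96-well plates for 48 hours. The concentration for 50% growth inhibition is given as GI50. TGI: concentration producing complete growth inhibition.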

Consider `Cc1ccc(/C=C2\CCCC\C2=N\O)cc1`, for which the TGI in experiment [1] was 84 µM; in [2] it was > 100 µM; in experiment [3], > 100 µM; in [4], > 100 µM; in [5], > 100 µM; in experiment [6], > 100 µM. For the same compound, the TGI in experiment [7], in experiment [8], in [9] and in experiment [10] was > 100 µM each time.
With `Oc1ccc(N=Nc2ccc(N=Nc3ccccc3)cc2)cc1`, the GI50 in experiment [1] was 0.61 µM; in experiment [2] it was 1.71 µM; in [3], 1.51 µM; in [4] it was 4.1 µM; in experiment [5], 1.45 µM; in experiment [6], 1.99 µM. Also, the GI50 in experiment [7] was 2.1 µM; in [8], 0.712 µM; in experiment [9] it was 0.874 µM; in experiment [10], 1.98 µM. The TGI in [1] worked out at 3.73 µM; in experiment [2], 4.77 µM; in experiment [3], 13.9 µM; in [4], 19.5 µM; in experiment [5], 4.12 µM; in experiment [6] it was 10.1 µM. Moreover, the TGI stood at 5.64 µM in experiment [7], 3.03 µM in [8], 2.41 µM in experiment [9] and 5.55 µM in experiment [10].
On to `[C-]#[N+]C(C)(C)C[C@H]1CC(C)C2CCC(C)C3([N+]#[C-])CCC(=C)C1[C@H]23` (stereo not given in full), for which the TGI came to 8.66 µM in experiment [1]; 14.1 µM in experiment [2]; 12.7 µM in [3]; 19.6 µM in experiment [4]; 20.1 µM in [5]; 6.6 µM in [6]. Also, the TGI in experiment [7] worked out at 5 µM; in experiment [8], 13.7 µM; in experiment [9] it was 11.5 µM; in experiment [10] it was 21.4 µM.
On to `Clc1ccc(SCCCCCCCCCCSc2ccc(Cl)cc2)cc1`, for which the TGI in [1] is > 100 µM; in experiment [2], > 70.7 µM; in experiment [3] it was 70.9 µM; in experiment [4], > 100 µM; in [5], > 100 µM; in experiment [6], > 100 µM. In addition, the TGI in experiment [7] is > 69.3 µM; in experiment [8] it was > 100 µM; in experiment [9], > 100 µM; in experiment [10] it was > 77.9 µM.
As to `CN1CCn2c(c(Sc3ccc(C(=O)NO)cc3)c3ccccc32)C1=O`, the GI50 in experiment [1] is 3.1 µM; in experiment [2] it was 1.87 µM; in experiment [3], 1.86 µM; in experiment [4], 1.35 µM; in experiment [5] it was 3.86 µM; in experiment [6], 1.59 µM. Also, the GI50 in [7] is 1.7 µM; in experiment [8], 1.56 µM; in experiment [9], 1.44 µM; in [10], 2.09 µM. In addition, the TGI in experiment [1] is 13.6 µM; in experiment [2], 4.33 µM; in experiment [3], 5.14 µM; in experiment [4] it was 4.36 µM; in experiment [5], 11 µM; in experiment [6], 3.55 µM. Further, the TGI in experiment [7] stood at 3.15 µM; in [8] it was 3.48 µM; in experiment [9], 3.24 µM; in [10] it was 5.29 µM.
For the compound `C=C1C(=O)O[C@H]2[C@H]1CC/C(CNS(=O)(=O)c1cccc3ccccc13)=C\CC[C@@]1(C)O[C@@H]21`, the GI50 in experiment [1] is 1.45 µM; in [2] it was 1.16 µM; in experiment [3], 0.713 µM; in [4], 2.48 µM; in experiment [5], 1.12 µM; in experiment [6], 1.08 µM. Besides, the GI50 was 1.95 µM in experiment [7], 1.77 µM in experiment [8], 1.67 µM in [9] and 1.48 µM in experiment [10]. For the same compound, the TGI was determined as 2.94 µM in [1]; 2.48 µM in experiment [2]; 2.26 µM in experiment [3]; 9.12 µM in [4]; 2.56 µM in experiment [5]; 2.3 µM in [6]. Moreover, the TGI turned out to be 3.98 µM in experiment [7], 4.02 µM in experiment [8], 4.5 µM in experiment [9] and 3.08 µM in experiment [10].
With `CNc1nc(N(C)C)nc(N(C)C)n1`, the GI50 in experiment [1] was > 100 µM and 828 µM; in [2], > 100 µM and 981 µM; in experiment [3] it was > 100 µM and 1870 µM; in experiment [4], > 100 µM and 650 µM; in experiment [5], > 100 µM and 926 µM; in [6], > 100 µM and 809 µM. Moreover, the GI50 in experiment [7] was > 100 µM and 1130 µM; in [8], > 100 µM and 1350 µM; in experiment [9], > 100 µM and 952 µM; in [10], > 100 µM and 2270 µM. Besides, the TGI is > 100 µM and 3250 µM in experiment [1]; > 100 µM and 2300 µM in [2]; > 100 µM and 4030 µM in experiment [3]; > 100 µM and 1830 µM in [4]; > 100 µM and 2620 µM in [5]; > 100 µM and 1930 µM in experiment [6]. In addition, the TGI in [7] was > 100 µM and 2840 µM; in [8] it was > 100 µM and 3580 µM; in experiment [9], > 100 µM and 3640 µM; in [10] it was > 100 µM and 4960 µM.
As for `CS/C(c1ccccc1)=[N+](/C)[O-]`, the TGI in experiment [1], in experiment [2], in experiment [3], in experiment [4], in experiment [5] and in [6] was > 100 µM in each case. The TGI in experiment [7], in [8], in experiment [9] and in [10] was > 100 µM throughout.
Regarding `CN(C)CCNC(=O)c1cc2c3ccccc3[nH]c2c2ncccc12`, the GI50 in experiment [1] was 2.13 µM; in [2], 0.0254 µM; in experiment [3], 4.24 µM; in experiment [4], 11.6 µM; in [5], 0.515 µM; in experiment [6], 3.95 µM. Moreover, the GI50 in experiment [7] is 6.05 µM; in experiment [8], 8.87 µM; in [9], 13.4 µM; in [10], 8.99 µM. Besides, the TGI in experiment [1] amounted to 24.3 µM; in [2], 16.8 µM; in experiment [3], 24.9 µM; in [4] it was 32.6 µM; in experiment [5], 12.3 µM; in [6] it was 25.3 µM. Also, the TGI in experiment [7] is 20.1 µM; in [8], 21.1 µM; in [9] it was 28 µM; in experiment [10], 54.7 µM.
Turning to `O=C(N/N=C\c1ccc(N(CCCl)CCCl)cc1Cl)c1cccnc1`, the GI50 in experiment [1] was 14.6 µM; in experiment [2] it was 3.37 µM; in [3] it was 19.2 µM; in [4] it was 9.59 µM; in [5], 7.06 µM; in experiment [6], 3.23 µM. Moreover, the GI50 in experiment [7] was 13.3 µM; in experiment [8], 33.1 µM; in [9], 0.513 µM; in [10], 0.991 µM. The TGI in [1] is 52.9 µM; in [2], 14.3 µM; in experiment [3], > 100 µM; in experiment [4], 54.9 µM; in experiment [5] it was 48.2 µM; in [6] it was 36.6 µM. Further, the TGI in [7] is 34.8 µM; in experiment [8], > 100 µM; in experiment [9], 3.92 µM; in experiment [10], 7.84 µM.
`COCCNC(=O)c1ccc(-c2nc3ccc4[nH]ncc4c3c3c2CCCC3)cc1`: the GI50 was 1.58 µM in [1]; 3.85 µM in [2]; 1.83 µM in [3]; 2.41 µM in experiment [4]; 0.689 µM in experiment [5]; 1.2 µM in experiment [6]. The GI50 in experiment [7] was 3.39 µM; in experiment [8] it was 1.71 µM; in experiment [9], 1.58 µM; in [10], 1.09 µM. Also, the TGI is 5.74 µM in experiment [1]; 37.3 µM in experiment [2]; 13.9 µM in experiment [3]; 31.1 µM in experiment [4]; 7.29 µM in [5]; > 100 µM in [6]. Further, the TGI in experiment [7] was 26.3 µM; in experiment [8], 8.01 µM; in [9], 13.1 µM; in experiment [10], > 100 µM.
Turning to `C[CH2][Sn]([CH2]C)([O]C(=O)c1cccc(F)c1)[O][Sn]([CH2]C)([CH2]C)[O]C(=O)c1cccc(F)c1`, the GI50 in experiment [1] was 49.8 µM; in [2], 78.8 µM; in experiment [3], 17.2 µM; in [4], 16.6 µM; in experiment [5], 11.7 µM; in experiment [6], 17.8 µM. Also, the GI50 in experiment [7] was 31.7 µM; in experiment [8], 17 µM; in experiment [9], 18.4 µM; in experiment [10] it was 19.6 µM. The TGI in experiment [1] was > 100 µM; in experiment [2], > 100 µM; in experiment [3] it was 30.9 µM; in experiment [4] it was 30.8 µM; in [5], 24.1 µM; in experiment [6], 32.5 µM. Moreover, the TGI in experiment [7] is > 100 µM; in experiment [8], 30.9 µM; in [9] it was 32.7 µM; in experiment [10], 33.8 µM.
As to `C[CH2][Sn]([Cl])([Cl])[CH2]C`, the GI50 was 97.8 µM in experiment [1]; 98 µM in experiment [2]; 20.8 µM in experiment [3]; 19.9 µM in experiment [4]; 8.91 µM in [5]; > 63.4 µM in experiment [6]. Moreover, the GI50 in experiment [7] was 45.5 µM; in experiment [8], 40.1 µM; in experiment [9], 22 µM; in experiment [10], 18.3 µM. Also, the TGI was > 100 µM in [1]; > 100 µM in experiment [2]; 39.8 µM in experiment [3]; 41.4 µM in experiment [4]; 25.8 µM in [5]; > 100 µM in experiment [6]. Moreover, the TGI was > 100 µM in experiment [7], > 100 µM in experiment [8], 47.8 µM in experiment [9] and 32.4 µM in experiment [10].
